Data taken from patent publication US20060020042A1, “Memantine for the treatment of mild and mild to moderate Alzheimer's disease” (Forest Laboratories, Inc., priority 2004, published 2006).

System: outpatients with mild-to-moderate Alzheimer's disease
Assay: CIBIC-plus in randomized, double-blind, placebo-controlled study
Format: in vivo, human
Settings: for CIBIC+ Non-Responder, number of patients / CIBIC+ Responder (ratings 1-4), number of patients / CIBIC+ Difference (memantine minus placebo, mean): Week 24, ITT; for CIBIC+ Difference (memantine minus placebo, mean): 20 mg/day
From the text: The present invention is based on results from a randomized, double-blind, placebo-controlled, multi-center, parallel-group study comparing memantine to placebo in outpatients diagnosed with probable AD according to […] criteria. Severity of mild to moderate was established using the Mini-Mental State Examination (MMSE) score (≧10 and ≦22; 0 is the lowest score and 30 is the highest score). In the study of the present invention, there were approximately 400 patients enrolled across 42 centers. Evaluation of primary efficacy was achieved by Alzheimer's Disease Assessment Scale-cognitive subscale (ADAS-cog) and the Clinician's Interview-Based Impression of Change including caregiver information (CIBIC-plus). Secondary efficacy was determined using Alzheimer's disease Cooperative Study-Activities of Daily Living (ADCS-ADL) and Neuropsychiatric Inventory (NPI) criteria. The CIBIC-Plus is a global rating that was derived through an independent, comprehensive interview with the patient and caregiver by an experienced rater/clinician who was barred from knowledge of all other psychometric test scores (after Baseline visit) conducted as part of this protocol and who is not otherwise familiar with the patient. Scores 1-3 indicate improvement; Score 4 indicates no change (as compared to baseline); Scores 5-7 indicate worsening. The CIBIC rater assessed disease severity at Baseline. Using the results from Baseline for reference, the rater then interviewed the patient and caregiver at the end of Weeks 4, 8, 12, 18 and 24 (or upon early termination), to obtain an “Impression of Change” rating. The format for this scale was derived from the Alzheimer's Disease Cooperative Study-Clinician's Global Impression of Change scale (ADCS-CGIC) (Schneider, L. et al, Alzheimer Dis Assoc Disord. 1997; 11 Suppl 2:S22-32). The CIBIC-plus was administered at each clinic visit starting with the Baseline visit. A “responder” is defined as a patient for whom the change from baseline (Visit 2) to Week 24 in ADAS-cog is less than or equal to -4. […] Results were evaluated over seven clinical visits; at initial screening, baseline, and the end of weeks 4, 8, 12, 18 and 24. The population of patients who received at least one dose of double-blind memantine, and completed at least one post-baseline efficacy evaluation of either the ADAS-cog or the CIBIC-plus is designated the “intent-to-treat” (ITT) population. The population of randomized patients who received at least one dose of double-blind study medication is designated the “safety population”. The randomized population designates all patients randomized into the study. This study was conducted as a fixed-dose study. All patients assigned to the memantine group received an initial dose of 5 mg per day; the dose was titrated in 5 mg weekly increments to a final dose of 20 mg/day (administered as two 5 mg tablets twice a day). Study drug was provided as blister packs containing masked study medication such that placebo and memantine tablets were visually identical, and all patients received four tablets of study medication daily (in combinations of memantine 5 mg tablets and matching placebo tablets). Transient dose adjustments were permitted between weeks 3 and 8 for patients experiencing dose-limiting adverse events. However, all patients were required to receive the target dose of 20 mg/day by the end of week 8. Patients not able to tolerate the target dose by week 8 were discontinued from the study. The CIBIC-plus rating was analyzed using the CMH test, controlling for study center ([…]). Descriptive statistics were calculated by visit.

[1] = LOCF, ITT, of 196 patients randomized to memantine

## CC12CC3CC(C)(C1)CC(N)(C3)C2 [Memantine, 1-amino-3,5-dimethyladamantane]
[1]
  CIBIC-plus marked improvement, number of patients: 9 patients
  CIBIC-plus marked worsening, number of patients: 1 patients
  CIBIC-plus moderate improvement, number of patients: 27 patients
  CIBIC-plus moderate worsening, number of patients: 18 patients
OC analysis
  CIBIC-plus marked worsening, number of patients: 1 patients
  CIBIC-plus minimal improvement, number of patients: 24 patients
  CIBIC-plus moderate improvement, number of patients: 8 patients
  CIBIC-plus moderate worsening, number of patients: 17 patients
  CIBIC+ Non-Responder, number of patients: 56 patients
  CIBIC+ Responder (ratings 1-4), number of patients: 108 patients
LOCF analysis
  CIBIC+ Non-Responder, number of patients: 64 patients
  CIBIC+ Responder (ratings 1-4), number of patients: 132 patients
LOCF analysis, p=0.004
  CIBIC+ Difference (memantine minus placebo, mean): −0.32
LOCF analysis, listed as Mem
  CIBIC+ Non-Responder, number of patients: 97/64 patients
  CIBIC+ Responder (ratings 1-4), number of patients: 100/132 patients
OC analysis, p=0.030
  CIBIC+ Difference (memantine minus placebo, mean): −0.26
OC analysis, listed as Mem
  CIBIC+ Non-Responder, number of patients: 81/56 patients
  CIBIC+ Responder (ratings 1-4), number of patients: 85/108 patients
By week 12, LOCF and OC
  CIBIC-plus, memantine-treated group compared with placebo: statistically significant improvement
